In ChEMBL document CHEMBL1201862, “PubChem BioAssay data set” (2004):
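These data come from cells grown in 96-well plates and exposed to compound for 48 hours at five concentrations. Here, GI50 denotes the concentration required for 50% inhibition of growth.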 Activity calls are given as the source filed them. Rule as the data show it: active = GI50 up to about 1.1 µM and inactive = higher.

Columns and labels:
Test in all cases: growth of human tumour cells (NCI), 48 h
A549 = tested on: A549
CCRF-CEM = tested on: CCRF-CEM
COLO 205 = tested on: COLO 205
EKVX = tested on: EKVX
HCT-15 = tested on: HCT-15
HT-29 = tested on: HT-29
K562 = tested on: K562
MOLT-4 = tested on: MOLT-4
NCI-H23 = tested on: NCI-H23
NCI-H460 = tested on: NCI-H460
OVCAR-5 = tested on: OVCAR-5
OVCAR-8 = tested on: OVCAR-8
RPMI-8226 = tested on: RPMI-8226
SN12C = tested on: SN12C
SNB-19 = tested on: SNB-19
SNB-75 = tested on: SNB-75
SW-620 = tested on: SW-620
U-251 = tested on: U-251
UACC-257 = tested on: UACC-257
UO-31 = tested on: UO-31

SMILES | GI50 (A549) | GI50 (CCRF-CEM) | GI50 (COLO 205) | GI50 (EKVX) | GI50 (HCT-15) [µM] | GI50 (HT-29) | GI50 (K562) | GI50 (MOLT-4) | GI50 (NCI-H23) | GI50 (NCI-H460) | GI50 (OVCAR-5) | GI50 (OVCAR-8) | GI50 (RPMI-8226) | GI50 (SN12C) | GI50 (SNB-19) | GI50 (SNB-75) | GI50 (SW-620) | GI50 (U-251) | GI50 (UACC-257) | GI50 (UO-31)
C=CCN1C(=O)/C(=C/c2ccc(OC)cc2)NC1=S | 34.8 µM (inactive) | < 0.01 µM (active) | > 100 µM (inactive) | 18.3 µM (inactive) | > 100 | 57.9 µM (inactive) | 38.5 µM (inactive) | 4.59 µM (inactive) | 58.3 µM (inactive) | > 100 µM (inactive) | > 100 µM (inactive) | 25.7 µM (inactive) | 35.2 µM (inactive) | > 100 µM (inactive) | > 100 µM (inactive) | > 100 µM (inactive) | > 100 µM (inactive) | 82.2 µM (inactive) | 27.9 µM (inactive) | 61.4 µM (inactive)
O=[N+]([O-])C(/C=C(\Cl)[N+](=O)[O-])=C1Nc2ccccc2N1 | > 100 µM (inactive) | 34.8 µM (inactive) | 30.5 µM (inactive) | 48.5 µM (inactive) | 59.4 | 39.6 µM (inactive) | 79.6 µM (inactive) | 37.1 µM (inactive) | > 100 µM (inactive) | > 100 µM (inactive) | – | 56.6 µM (inactive) | 44.3 µM (inactive) | 39.7 µM (inactive) | 75.5 µM (inactive) | 17.3 µM (inactive) | > 100 µM (inactive) | 43.3 µM (inactive) | 33.3 µM (inactive) | 42.6 µM (inactive)
CCOP(=Nc1ccc(N(C)C)cc1)(OCC)OCC | > 100 µM (inactive) | – | > 100 µM (inactive) | > 100 µM (inactive) | > 100 | – | > 100 µM (inactive) | > 100 µM (inactive) | > 100 µM (inactive) | > 100 µM (inactive) | > 100 µM (inactive) | > 100 µM (inactive) | > 100 µM (inactive) | – | > 100 µM (inactive) | > 100 µM (inactive) | – | > 100 µM (inactive) | > 100 µM (inactive) | > 100 µM (inactive)
NC(=O)c1csc(C2O[C@@H](COP(=O)(O)OP(=O)(O)OC[C@H]3OC(n4cnc5c(N)ncnc54)[C@H](O)[C@@H]3O)[C@H](O)[C@@H]2O)n1 (some centres undefined) | > 100 µM (inactive) | > 100 µM (inactive) | > 100 µM (inactive) | > 100 µM (inactive) | > 100 | 87.5 µM (inactive) | 23.6 µM (inactive) | 59.2 µM (inactive) | > 100 µM (inactive) | 39.6 µM (inactive) | > 100 µM (inactive) | 73.8 µM (inactive) | 65.2 µM (inactive) | > 100 µM (inactive) | > 100 µM (inactive) | 45 µM (inactive) | > 100 µM (inactive) | 45.8 µM (inactive) | 66.8 µM (inactive) | > 100 µM (inactive)
CCOC(=O)c1cc2c([N+](=O)[O-])c(NC(C)=O)ccc2s1 | 50.2 µM (inactive) | 53 µM (inactive) | 34.8 µM (inactive) | 12.6 µM (inactive) | 86.9 | 89.7 µM (inactive) | 53.6 µM (inactive) | 31.4 µM (inactive) | 71.9 µM (inactive) | > 100 µM (inactive) | > 100 µM (inactive) | > 100 µM (inactive) | 24.4 µM (inactive) | 92 µM (inactive) | > 100 µM (inactive) | 19.3 µM (inactive) | > 100 µM (inactive) | 44.6 µM (inactive) | > 100 µM (inactive) | 47.3 µM (inactive)
Cc1cccc(/C=C2\CCCc3ccccc3C2=O)c1 | 24.2 µM (inactive) | 13.7 µM (inactive) | 18.9 µM (inactive) | 20.6 µM (inactive) | 18.7 | 18.5 µM (inactive) | 18 µM (inactive) | 16.9 µM (inactive) | 25.4 µM (inactive) | 16.8 µM (inactive) | 15 µM (inactive) | 19.1 µM (inactive) | 8.2 µM (inactive) | 17.9 µM (inactive) | 24.4 µM (inactive) | 42.2 µM (inactive) | 16.8 µM (inactive) | 18.6 µM (inactive) | 21.6 µM (inactive) | 26.8 µM (inactive)
CSCCC(N)P(C)(=O)O (centres undefined) | > 100 µM (inactive) | > 100 µM (inactive) | > 100 µM (inactive) | > 100 µM (inactive) | > 100 | > 100 µM (inactive) | > 100 µM (inactive) | > 100 µM (inactive) | > 100 µM (inactive) | > 100 µM (inactive) | > 100 µM (inactive) | > 100 µM (inactive) | > 100 µM (inactive) | > 100 µM (inactive) | > 100 µM (inactive) | > 100 µM (inactive) | > 100 µM (inactive) | > 100 µM (inactive) | > 100 µM (inactive) | > 100 µM (inactive)
O=CN1CCC23CC(O)CCC2C1Cc1cc(Oc2nnnn2-c2ccccc2)cc(O)c13 (centres undefined) | > 100 µM (inactive) | 65.5 µM (inactive) | 32.9 µM (inactive) | > 100 µM (inactive) | 80 | 59.4 µM (inactive) | > 100 µM (inactive) | 48.9 µM (inactive) | > 100 µM (inactive) | 85.9 µM (inactive) | > 100 µM (inactive) | > 100 µM (inactive) | 93.3 µM (inactive) | > 100 µM (inactive) | > 100 µM (inactive) | > 100 µM (inactive) | > 100 µM (inactive) | > 100 µM (inactive) | > 100 µM (inactive) | 85.3 µM (inactive)
COc1c(Cl)cc(Cl)cc1S(=O)O | – | > 100 µM (inactive) | – | > 100 µM (inactive) | – | > 100 µM (inactive) | > 100 µM (inactive) | > 100 µM (inactive) | > 100 µM (inactive) | > 100 µM (inactive) | > 100 µM (inactive) | – | – | > 100 µM (inactive) | > 100 µM (inactive) | > 100 µM (inactive) | – | > 100 µM (inactive) | > 100 µM (inactive) | > 100 µM (inactive)
CN(O)C(=O)CCCC(=O)NCC(C)(C)CNC(=O)CCCC(=O)N(C)O | > 100 µM (inactive) | > 100 µM (inactive) | > 100 µM (inactive) | > 100 µM (inactive) | > 100 | > 100 µM (inactive) | > 100 µM (inactive) | > 100 µM (inactive) | > 100 µM (inactive) | > 100 µM (inactive) | > 100 µM (inactive) | > 100 µM (inactive) | > 100 µM (inactive) | – | > 100 µM (inactive) | > 100 µM (inactive) | > 100 µM (inactive) | > 100 µM (inactive) | > 100 µM (inactive) | > 100 µM (inactive)
CC(C)(C)[Si](OC1CCOC1=O)(c1ccccc1)c1ccccc1 (centres undefined) | 15.2 µM (inactive) | 25.6 µM (inactive) | > 10 µM (inactive) | 31.3 µM (inactive) | 18.5 | 15.3 µM (inactive) | – | 17.5 µM (inactive) | 19.4 µM (inactive) | 18.7 µM (inactive) | 26.7 µM (inactive) | 23.4 µM (inactive) | 29 µM (inactive) | 17.1 µM (inactive) | 29.6 µM (inactive) | 23.6 µM (inactive) | 26.5 µM (inactive) | 14.7 µM (inactive) | 17.1 µM (inactive) | 27.1 µM (inactive)
O=C1/C(=C/c2ccccc2)NC(=S)N1CN1CCOCC1 | > 100 µM (inactive) | > 100 µM (inactive) | > 100 µM (inactive) | > 100 µM (inactive) | > 100 | > 100 µM (inactive) | > 100 µM (inactive) | > 100 µM (inactive) | > 100 µM (inactive) | – | > 100 µM (inactive) | > 100 µM (inactive) | > 100 µM (inactive) | > 100 µM (inactive) | > 100 µM (inactive) | > 100 µM (inactive) | > 100 µM (inactive) | > 100 µM (inactive) | > 100 µM (inactive) | > 100 µM (inactive)
NC(=S)N/N=C1\CC(c2ccccc2)Nc2ccccc21 (centres undefined) | – | 29.6 µM (inactive) | 28.1 µM (inactive) | 55.7 µM (inactive) | 28.6 | 17.2 µM (inactive) | 12.2 µM (inactive) | 22.6 µM (inactive) | 30.2 µM (inactive) | 32.7 µM (inactive) | – | 41.6 µM (inactive) | 27.1 µM (inactive) | 48.1 µM (inactive) | 40.8 µM (inactive) | 16.6 µM (inactive) | 30.7 µM (inactive) | 39.6 µM (inactive) | – | 24.5 µM (inactive)
CC(C)CC(NC(=O)OCc1ccccc1)C(=O)NCCCCC(N)C(=O)NC(CCCCNC(=O)C(CC(C)C)NC(=O)OCc1ccccc1)C(=O)NC(CCCCNC(=O)C(CC(C)C)NC(=O)OCc1ccccc1)C(=O)NC(CCCCNC(=O)C(CC(C)C)NC(=O)OCc1ccccc1)C(=O)NC(CCCCNC(=O)C(CC(C)C)NC(=O)OCc1ccccc1)C(=O)NC(CCCCNC(=O)C(CC(C)C)NC(=O)OCc1ccccc1)C(=O)O (centres undefined) | > 100 µM (inactive) | > 100 µM (inactive) | – | – | > 100 | > 100 µM (inactive) | > 100 µM (inactive) | > 100 µM (inactive) | > 100 µM (inactive) | > 100 µM (inactive) | > 100 µM (inactive) | > 100 µM (inactive) | > 100 µM (inactive) | > 100 µM (inactive) | > 100 µM (inactive) | – | > 100 µM (inactive) | > 100 µM (inactive) | > 100 µM (inactive) | > 100 µM (inactive)
C=CCn1c(=O)ccn(COCCO)c1=O | > 100 µM (inactive) | > 100 µM (inactive) | > 100 µM (inactive) | > 100 µM (inactive) | – | > 100 µM (inactive) | > 100 µM (inactive) | > 100 µM (inactive) | > 100 µM (inactive) | > 100 µM (inactive) | > 100 µM (inactive) | > 100 µM (inactive) | > 100 µM (inactive) | > 100 µM (inactive) | 25.8 µM (inactive) | > 100 µM (inactive) | > 100 µM (inactive) | > 100 µM (inactive) | > 100 µM (inactive) | > 100 µM (inactive)
